# Results from the supplement of paper PMC10307832.
# Compound: O=C(O)c1ccc2c(c1)nc(Nc1cccc(Cl)c1)c1ccncc12 [Silmitasertib]
# Assay: relative viability (nuclei count vs DMSO), 5 days (fraction); higher = more cells survive
# How it was run: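 Only plates meeting two conditions passed: control CV below 25% and at least one doubling. Lung cancer cell lines, kept overnight at 37 °C in 1536-well plates, were pinned with five library-drug doses (not always all listed) √10 apart on vehicle-anchored plates and grown 5 days without medium change. A one-step fix, permeabilisation and Hoechst stain preceded 4× imaging and MetaXpress nuclear counting. Viability equals treated-well nuclei divided by vehicle-well nuclei, as the median over plates.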
Cell Line,relative viability (0.04 µM),relative viability (0.4 µM),relative viability (1.265 µM),relative viability (4 µM)
201T,1.08,0.994,1.02,1.06
A-427,1.07,–,1.03,0.396
ABC-1,1.37,0.773,0.656,0.465
BEN,1.16,0.795,1,0.885
CAL-12T,1.15,0.892,0.842,0.472
COR-L23,1.07,0.782,1.09,0.831
COR-L 105,1.05,0.902,0.768,0.553
ChaGo-K-1,1.07,0.735,0.96,0.885
EKVX,1.11,0.617,0.864,0.717
EMC-BAC-2,1.11,0.806,0.605,0.44
EPLC-272H,1.25,–,0.807,0.154
H3255,1.05,0.877,0.946,0.906
HARA,1.13,0.678,0.668,0.38
HCC-15,1.11,0.769,0.825,0.377
HCC-44,1.03,0.963,1.03,0.544
HCC-78,1.05,0.697,0.654,0.764
HCC-366,0.993,0.794,0.923,0.136
HCC-827,1.09,–,1.14,0.996
HOP-62,1.09,–,1.12,0.542
IA-LM,1.03,0.749,1.08,0.409
LC-2-ad,1.13,0.828,0.976,0.523
LCLC-97TM1,1.1,–,0.882,0.403
LCLC-103H,0.986,0.99,0.945,0.628
LK-2,1.04,0.727,1.03,0.943
LOU-NH91,1.12,0.917,0.806,0.582

Cell Line,relative viability (0.04 µM),relative viability (0.4 µM),relative viability (1.265 µM),relative viability (4 µM)
LU99A,1.03,1.09,0.986,0.752
LXF-289,1.05,–,1.05,1.02
NCI-H23,1.07,0.395,0.747,0.372
NCI-H322M,1.08,0.882,0.826,0.486
NCI-H358,1.13,0.757,0.744,0.667
NCI-H441,1,–,0.892,0.757
NCI-H460,1.03,0.951,0.959,0.799
NCI-H520,1.11,0.835,0.887,0.802
NCI-H596,0.958,0.792,0.947,0.658
NCI-H647,0.968,0.758,0.723,0.498
NCI-H650,1.17,0.567,0.66,0.379
NCI-H661,1.06,0.829,0.946,0.991
NCI-H727,1.18,0.619,0.833,0.894
NCI-H838,1.03,0.747,0.925,0.678
NCI-H1355,1.06,–,0.918,0.668
NCI-H1395,1.07,0.772,0.913,0.555
NCI-H1437,1.04,0.679,0.784,0.737
NCI-H1563,0.989,1.03,0.887,0.903
NCI-H1650,1.15,0.784,0.629,0.389
NCI-H1651,0.974,0.991,1.02,0.989
NCI-H1666,1.05,0.834,0.745,0.692
NCI-H1703,1.13,0.883,1.1,1.11
NCI-H1734,1.07,0.816,0.975,0.691
NCI-H1755,1.03,0.953,1.05,1.16
NCI-H1792,0.987,0.788,0.858,0.416

Cell Line,relative viability (0.04 µM),relative viability (0.4 µM),relative viability (1.265 µM),relative viability (4 µM)
NCI-H1793,1.09,0.654,0.771,0.529
NCI-H1915,1.01,–,1.03,0.554
NCI-H1944,1.01,0.748,0.994,0.936
NCI-H1975,1.18,–,0.904,0.917
NCI-H1993,1.08,0.742,0.837,0.622
NCI-H2009,1.05,0.878,0.85,0.608
NCI-H2023,1.03,0.791,0.87,0.651
NCI-H2085,1.03,0.779,0.941,0.902
NCI-H2087,1.04,0.596,0.875,0.466
NCI-H2126,0.996,0.824,0.939,0.81
NCI-H2170,1.02,0.712,0.932,0.96
NCI-H2228,0.949,0.715,1.12,1.06
NCI-H2342,1.1,0.839,0.998,0.839
NCI-H2347,1.1,0.754,0.98,0.687
NCI-H2405,1.24,0.831,0.883,0.81
NCI-H3122,0.995,0.889,1.02,0.983
PC-3 [JPC-3],1.04,0.812,1.1,0.953
PC-14,1.2,0.703,1.02,0.735
RERF-LC-KJ,1.03,0.848,0.823,0.581
SK-LU-1,1.13,0.703,0.802,0.457
SK-MES-1,1.04,0.989,0.855,0.491
SW 900,1.02,0.503,0.651,0.295
SW 1573,1.19,0.955,0.876,0.779
UMC-11,1.11,0.916,0.985,0.684
